Like-named read-outs stand apart in the source and are kept apart here.

The values that follow come from US8623327B2, “Imaging agents for use in magnetic resonance blood flow/perfusion imaging” (Beth Israel Deaconess Medical Center, Inc., priority 2006, dated 2014).

Data set [1] concerns alcohol dehydrogenase enzyme. As to conditions: cited from earlier work.
For data set [2] the following is noted: cited from earlier work.
A short description of data set [3]: NMR relaxation time (T1, T2) measurement, saturation recovery. Format: physicochemical. As to conditions: for median value of T1: 9.6 T.
The conditions of data set [4]: cited from earlier work. This is another data set of the same source.
The mark [5] stands for this setting: single saturated recovery experiment (FIGS. 2A and 2B).

With `CC(C)(C)O` [t-butanol, tert-butyl alcohol], in data set [1], the “processing by alcohol dehydrogenase enzyme” value is listed as “not processed”. On to `[Xe]` [Xenon], for which the relaxation time entry in data set [2] (in blood) is “less than 10 seconds”; in data set [2] (in tissue) it was no less than 2 s. As to `[2H]C([2H])([2H])[13C](O)(C([2H])([2H])[2H])C([2H])([2H])[2H]`, the “median value of T1” value in data set [3] (at 400 Mhz) was 64 ± 20 s. Besides, the T1 in data set [3] (at 400 Mhz, measured in water with oxygen present) was greater than 20 s. In data set [3] (setting [5]), this compound yielded a T1 of 46±4 and a T2 of 0.6±0.02. Regarding `[3He]` [3He], the solubility in blood result in data set [4] is recorded as “not soluble in blood”.

As to `[2H][13C]([2H])([2H])C(O)([13C]([2H])([2H])[2H])[13C]([2H])([2H])[2H]`, the “median value of T1” value in data set [3] (at 400 Mhz) was found to be 26 ± 5 s.
